According to US5741669A, “Insecticidally effective peptides” (FMC Corporation, priority 1995, dated 1998):

Columns and labels:
[1] = system: cabbage looper, Trichoplusia ni (CL); assay: Injection bioassay of whole venom and purified toxins in CL larvae; type: in vivo; conditions: T. ni (CL), log-probit analysis
Description: (§1) The insects tested were last instar, laboratory reared larvae of the tobacco budworm, Heliothis virescens (TBW); the beet armyworm, Spodoptera exigua (BAW); the cabbage looper,Trichoplusia ni (CL); the corn earworm, Heliothis (Helicoverpa) zea (CEW); the fall armyworm, Spodoptera frugiperda (FAW); the soybean looper, Pseudoplusia includens (SBL); the European corn borer, Ostrinia nubilalis (ECB); and the diamondback moth, Plutella xylostella (DBM). Adult house flies, Musca domestica (HF) and adult Southern corn rootworm beetles, Diabrotica undecimpunctata (SRC) were also tested. The first six species (TBW, BAW, CL, CEW, FAW, and SBL) are in the family Noctuidae of the order Lepidoptera. O. nubilalis and P. xylostella are lepidopterans in the families Pyralidae and Plutellidae, respectively. […] Whole venom doses were calculated in terms of WVE. […] Doses of components from early fractionations were also calculated in terms of WVE; doses of purified toxins were calculated from ultraviolet absorbances at 280 nm. […]
(§2) Full dose-response assays were carried out in TBW (n=6), BAW (n=6), CL (n=6) and SCR (n=5). […] LD50 values were determined by log-probit analysis basic program for microcomputer. […] Because probit analysis requires two responses that are neither zero nor 100 percent, […] values in several cases had to be estimated rather than calculated directly. […]

[2] = system: soybean looper, Pseudoplusia includens (SBL); assay: Two-dose injection assay of toxins in SBL larvae; type: in vivo
Description: as §1, §2

[3] = system: European corn borer, Ostrinia nubilalis (ECB); assay: Two-dose injection assay of toxins in ECB larvae; type: in vivo
Description: as §1, §2

[4] = system: diamondback moth, Plutella xylostella (DBM); assay: Injection assay of toxin in DBM larvae; type: in vivo
Description: as §1, §2

[5] = system: Southern corn rootworm beetles, Diabrotica undecimpunctata (SCR); assay: Injection bioassay of toxins in adult Southern corn rootworm beetles; type: in vivo; conditions: D. undecimpunctata (SCR), NPS-326 value estimated (highest dose 100% mortality, rest none)
Description: as §1, §2

[6] = system: beet armyworm, Spodoptera exigua (BAW); assay: Injection bioassay of whole venom and purified toxins in BAW larvae; type: in vivo; conditions: S. exigua (BAW), estimate based on 50% mortality at this dose, all other responses 0% or 100%
Description: as §1, §2

[7] = system: fall armyworm, Spodoptera frugiperda (FAW); assay: Two-dose injection assay of toxins in FAW larvae; type: in vivo
Description: as §1, §2

[8] = system: tobacco budworm, Heliothis virescens (TBW); assay: Injection bioassay of whole venom and purified toxins in TBW larvae; type: in vivo; conditions: for LD50: H. virescens (TBW), log-probit analysis
Description: The insects tested were last instar, laboratory reared larvae of the tobacco budworm, Heliothis virescens (TBW); the beet armyworm, Spodoptera exigua (BAW); the cabbage looper,Trichoplusia ni (CL); the corn earworm, Heliothis (Helicoverpa) zea (CEW); the fall armyworm, Spodoptera frugiperda (FAW); the soybean looper, Pseudoplusia includens (SBL); the European corn borer, Ostrinia nubilalis (ECB); and the diamondback moth, Plutella xylostella (DBM). Adult house flies, Musca domestica (HF) and adult Southern corn rootworm beetles, Diabrotica undecimpunctata (SRC) were also tested. The first six species (TBW, BAW, CL, CEW, FAW, and SBL) are in the family Noctuidae of the order Lepidoptera. O. nubilalis and P. xylostella are lepidopterans in the families Pyralidae and Plutellidae, respectively. M. domestica and D. undecimpunctata are in the orders Diptera and Coleoptera, respectively. All species tested are important pests in crop production except M. domestica which is a nuisance pest in agricultural and urban settings. All samples, whether whole venom or venom fractions, were prepared in filter-sterilized physiological saline, pH 6.5. Samples were administered by injection into the hemocoel at or near the lateral midline of the fourth abdominal segment; the needle was inserted at a shallow angle to avoid injury to internal organs. Whole venom doses were calculated in terms of WVE. One WVE is the amount of any material which is normally present in one microliter of whole milked venom. Doses of components from early fractionations were also calculated in terms of WVE; doses of purified toxins were calculated from ultraviolet absorbances at 280 nm. Scopes, Anal. Biochem., 59:277 (1974). Control insects were given an equivalent volume of buffered saline solution.
Full dose-response assays were carried out in TBW (n=6), BAW (n=6), CL (n=6) and SCR (n=5). Other species were challenged with one or both toxins in a two-dose assay for purposes of estimating the toxins' activities in a variety of insects. LD50 values were determined by log-probit analysis basic program for microcomputer. Raymond, Set. Ent. med et Parasitol., 22:117 (1985). The insecticidal Tegenaria toxins generally have quite steep dose-response curves; frequently there is less than a 10-fold difference between a 100% lethal dose and a dose causing no mortality. Because probit analysis requires two responses that are neither zero nor 100 percent, […] values in several cases had to be estimated rather than calculated directly. In every case, however, there was an obvious and statistically significant dose response.

male Swiss-Webster mice = assay: Mammalian toxicity test by injection in mice; type: in vivo; conditions: 30 μg, male Swiss-Webster mice (~30 gm)
Description: (§3) Injection of 30 μg of NPS-326 into the cerebral ventricles (n=3) or peritoneum (n=2) of male Swiss-Webster mice (~30 gm) had no effect. The effects of NPS-331 in mammalian systems were further tested by in vitro rat brain slice electrophysiology. […] The assay is capable of detecting a variety of effects on various mammalian ion channels and neurotransmitter receptors (Dunwiddie, in Electrophysiological Techniques in Pharmacology, Alan R. Liss, Inc., New York (1986), pp. 65-90).

[9] = system: corn earworm, Heliothis (Helicoverpa) zea (CEW); assay: Two-dose injection assay of toxins in CEW larvae; type: in vivo
Description: as §1, §2

[10] = system: house flies, Musca domestica (HF); assay: Injection bioassay of toxins in adult house flies; type: in vivo; conditions: M. domestica (HF), estimate from two-dose assay (100% and 30% mortality; control 10%)
Description: as §1, §2

[11] = system: rat hippocampal preparation, the Schaffer collateral-CA 1 pyramidal cell synapse; assay: In vitro rat brain slice electrophysiology; type: cell-based; conditions: applied at 1 μm
Description: as §3

Molecule | LD50 [1] | estimated LD50 [2] | estimated LD50 [3] | treated larvae developing tremors, spasms and convulsions ([4]; 1.1 nmol/gm, within 24 hours) | estimated LD50 ([4]; DBM larvae) | LD50 [5] | LD50 [6] | estimated LD50 [7] | LD50 [8] | approximate LD50 ([8]; TBW, venom-derived toxin) | effect of injection into the peritoneum (male Swiss-Webster mice; n=2) | effect of injection into the cerebral ventricles (male Swiss-Webster mice; n=3) | estimated LD50 [9] | LD50 [10] | effect on evoked synaptic responses [11] | treated larvae paralyzed ([8]; 7.7 μg/g, TBW, n=6)
NPS-326 (EPDEICRARMTHKEFNYKSNVCNGCGDQVAACEAECFRNDVYTACHEAQK) | 0.78 nmol/gm | 1.55 nmol/gm | 1.1 nmol/gm | 90% | < 1.1 nmol/gm | ~2.0 nmol/gm | ~0.88 nmol/gm | 5.3 nmol/gm | 0.89 nmol/gm | ~5.7 µg/g | no effect | no effect | 0.8 nmol/gm |  |  | 
NPS-331 (EPDEICRARMTNKEFTYKSNVCNNCGDQVAACEAECFRNDVYTACHEAQK) | 0.22 nmol/gm | 1.05 nmol/gm | 0.64 nmol/gm |  |  | 0.57 nmol/gm | ~0.29 nmol/gm | 1.84 nmol/gm | 2.6 nmol/gm |  |  |  | 1 nmol/gm | ~0.7 nmol/gm | without effect | 
NPS-373 (protein) MKLQLMICLVLLPCFFCEPDEICRARMTNKEFTYKSNVCNGCGDQVAACEAECFRNDVYTACHEAQKG |  |  |  |  |  |  |  |  |  |  |  |  |  |  |  | 50%
